Results as given in US20130084272A1, “COMPOSITIONS, KITS AND METHODS FOR NUTRITIONAL SUPPLEMENTATION WITH TWELVE CARBON CHAIN FATTY ACIDS AND TWELVE CARBON CHAIN ACYLGLYCEROLS” (priority 2011, published 2013).
Where two headings read alike, the source gives them in different places.

How the values were obtained:
[1] = in vivo
[2] = Francois et al. 1998; cited from earlier work
[3] = for Lauric acid content of milk: lactating women, baseline 3.9%
bacteria = conditions: Batovska et al. 2009; cited from earlier work

Time remaining significantly elevated in milk ([1]; human) [days] | Time of maximum increase in human milk [1] [h] | Time to significant increase in human milk after consumption of the test formula [1] [h] | Milk content of lauric acid over time ([3]; ingestion of formula containing 40 g coconut oil, P<0.001) | Lauric acid content of milk ([3]; 10 h after consuming 40 g coconut oil composition) | Lauric acid content of milk ([3]; 14 hr after consuming 40 g coconut oil composition) | Structure (SMILES) | Time to significant increase in human milk after consumption by the lactating mother [2] [h] | Antibacterial activity among medium chain fatty acids and their monoacylglycerols (bacteria)
2 | 24 | ≤ 6 |  |  |  | CC/C=C\C/C=C\C/C=C\C/C=C\C/C=C\C/C=C\CCC(=O)O [docosahexaenoic acid] |  | 
 | 14 | ≤ 6 |  |  |  | CC/C=C\C/C=C\C/C=C\C/C=C\C/C=C\CCCC(=O)O [eicosapentaenoic acid] |  | 
 | 14 | ≤ 6 | increases | 9.2 % of fatty acids | 9.6 % of fatty acids | CCCCCCCCCCCC(=O)O [lauric acid] | ≤ 6 | 
 |  |  |  |  |  | CCCCCCCCCCCC(=O)OCC(O)CO (stereo not drawn) [monolaurin, glycerol monolaurate] |  | most active
